Results as given in US20150352108A1, “AMINO-PYRIMIDINE COMPOUNDS AS INHIBITORS OF TBK1 AND/OR IKK EPSILON” (Alzheimer's Institute of America, priority 2009, published 2015).
Like-named read-outs stand apart in the source and are kept apart here.

Key:
IKKε = molecular target: T1, IKKε (Homo sapiens, UniProt Q14164); test: In-vitro IKKε kinase assay ([γ33]ATP filter-plate); type: biochemical
T1 construct: His-tag; made in house; host or cells: Sf9 insect cells
T1 sequence (Q14164 1-716): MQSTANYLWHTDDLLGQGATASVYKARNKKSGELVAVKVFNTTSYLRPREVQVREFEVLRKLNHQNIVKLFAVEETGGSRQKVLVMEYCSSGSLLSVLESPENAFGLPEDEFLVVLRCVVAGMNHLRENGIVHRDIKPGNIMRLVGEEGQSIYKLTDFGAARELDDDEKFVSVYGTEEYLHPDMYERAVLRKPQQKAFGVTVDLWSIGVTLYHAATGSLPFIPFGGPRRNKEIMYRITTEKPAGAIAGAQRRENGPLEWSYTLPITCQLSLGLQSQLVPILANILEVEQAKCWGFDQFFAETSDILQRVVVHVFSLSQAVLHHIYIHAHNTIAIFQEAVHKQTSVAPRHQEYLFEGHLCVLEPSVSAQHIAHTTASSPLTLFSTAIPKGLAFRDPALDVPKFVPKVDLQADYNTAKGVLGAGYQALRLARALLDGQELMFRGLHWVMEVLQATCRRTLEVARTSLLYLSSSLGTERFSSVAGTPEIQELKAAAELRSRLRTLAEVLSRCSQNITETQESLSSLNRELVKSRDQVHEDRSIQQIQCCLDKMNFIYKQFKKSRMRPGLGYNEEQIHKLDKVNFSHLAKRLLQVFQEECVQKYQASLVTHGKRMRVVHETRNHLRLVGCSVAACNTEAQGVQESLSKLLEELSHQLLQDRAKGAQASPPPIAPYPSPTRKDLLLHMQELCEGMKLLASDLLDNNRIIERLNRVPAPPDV
In short: (§1)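 His-tagged IKKε and TBK1 from Sf9 cells were assayed with myelin basic protein or casein and [γ33]ATP at 2×Km ATP (32 μM for IKKε, 60 μM for TBK1). Enzyme was 0.1 or 0.015 μg/ml for IKKε and 0.1 or 0.02 μg/ml for TBK1 (normal/sensitized). Reactions ran 30-45 min, were filter-captured, scintillation-counted, and normalized to DMSO after background subtraction.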

TBK1 = molecular target: T2, TBK1 (Homo sapiens, UniProt Q9UHD2); test: In-vitro TBK1 kinase assay ([γ33]ATP filter-plate); type: biochemical
T2 construct: His-tag; made in house; host or cells: Sf9 insect cells
T2 sequence (Q9UHD2 1-729): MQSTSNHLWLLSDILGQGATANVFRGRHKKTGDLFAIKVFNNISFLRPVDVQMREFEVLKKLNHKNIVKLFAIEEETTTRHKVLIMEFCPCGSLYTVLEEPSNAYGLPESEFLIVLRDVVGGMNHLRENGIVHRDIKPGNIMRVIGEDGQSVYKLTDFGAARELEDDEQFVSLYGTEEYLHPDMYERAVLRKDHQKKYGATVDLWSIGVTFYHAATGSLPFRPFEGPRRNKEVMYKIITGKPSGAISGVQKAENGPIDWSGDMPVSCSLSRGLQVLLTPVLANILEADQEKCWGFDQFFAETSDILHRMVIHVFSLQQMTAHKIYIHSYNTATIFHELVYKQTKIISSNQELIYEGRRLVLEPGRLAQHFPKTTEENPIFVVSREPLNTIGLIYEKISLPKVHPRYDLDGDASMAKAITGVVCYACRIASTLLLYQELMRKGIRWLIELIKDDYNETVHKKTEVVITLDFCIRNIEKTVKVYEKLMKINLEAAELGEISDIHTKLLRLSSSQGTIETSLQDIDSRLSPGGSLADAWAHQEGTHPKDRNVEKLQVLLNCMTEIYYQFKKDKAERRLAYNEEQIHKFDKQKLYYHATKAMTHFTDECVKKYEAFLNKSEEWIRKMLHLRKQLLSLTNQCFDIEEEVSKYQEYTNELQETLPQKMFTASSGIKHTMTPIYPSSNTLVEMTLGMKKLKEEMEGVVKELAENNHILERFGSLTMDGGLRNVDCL
In short: as §1

[1] = text bins, read-out: IC50 for inhibition of the kinase activity of IKKε
[2] = text bins, read-out: IC50 for inhibition of the kinase activity of TBK1

Compound	IC50 (IKKε; [1]) [nM]	IC50 (TBK1; [2]) [nM]	IC50 (IKKε; Table 3, read-out: IKKε IC50) [nM]	IC50 (TBK1; Table 3, read-out: TBK1 IC50) [nM]
COc1cc(NC(=O)NCCCN)cc(Nc2nccc(-c3ccc(OC)c(C#N)c3)n2)c1 [compound 320, 1-(3-Aminopropyl)-3-(3-{[4-(3-cyano-4-methoxyphenyl)pyrimidin-2-yl]amino}-5-methoxyphenyl)urea]	50 to 500	10 to 100	–	–
N#Cc1cc(-c2ccnc(Nc3cccc(N4CCOCC4)c3)n2)ccc1OC1CCOCC1 [compound 585, 5-(2-{[3-(Morpholin-4-yl)phenyl]amino}pyrimidin-4-yl)-2-(tetrahydro-2H-pyran-4-yloxy)benzonitrile]	< 5	< 10	0.4	1.9
COc1ccc(-c2ccnc(Nc3ccc(N4CCN(C)CC4)cc3)n2)cc1C#N [compound 297, 2-Methoxy-5-(2-{[4-(4-methylpiperazin-1-yl)phenyl]amino}pyrimidin-4-yl)benzonitrile]	5 to 50	< 10	–	–
N#Cc1cc(-c2ccnc(Nc3ccc(N4CCOCC4)cc3)n2)ccc1OC1CCOC1 (stereo not drawn) [Example 261, 5-(2-{[4-(Morpholin-4-yl)phenyl]amino}pyrimidin-4-yl)-2-(tetrahydrofuran-3-yloxy)benzonitrile]	< 5	< 10	–	–
N#Cc1cc(-c2ccnc(Nc3ccc(N4CCOCC4)cc3)n2)ccc1OC1CCN(C=O)C1 (stereo not drawn) [Example 187, 2-[(1-formylpyrrolidin-3-yl)oxy]-5-(2-{[4-(morpholin-4-yl)phenyl]amino}pyrimidin-4-yl)benzonitrile]	5 to 50	< 10	–	–
CCN(CC)CCN(CC)S(=O)(=O)Cc1ccc(Nc2nccc(-c3ccc(OC4CCOCC4)c(C#N)c3)n2)cc1 [compound 412, 1-[4-({4-[3-Cyano-4-(tetrahydro-2H-pyran-4-yloxy)phenyl]pyrimidin-2-yl}amino)phenyl]-N-[2-(diethylamino)ethyl]-N-ethylmethane-sulfonamide]	5 to 50	10 to 100	–	–
COc1ccc(-c2ccnc(Nc3ccc(N4CCOCC4)c(Cl)c3)n2)cc1C#N [Example 98]	< 5	< 10	–	–
COc1cc(Nc2nccc(-c3ccc(OC4CCOCC4)c(C#N)c3)n2)ccc1S(=O)(=O)N1CCCC1 [compound 394, 5-(2-{[3-methoxy-4-(pyrrolidin-1-ylsulfonyl)phenyl]amino}pyrimidin-4-yl)-2-(tetrahydro-2H-pyran-4-yloxy)benzonitrile]	< 5	< 10	–	–
COc1ccc(-c2ccnc(Nc3cccc(OCCN4CCOCC4)c3)n2)cc1C#N [compound 314, 2-Methoxy-5-[2-({3-[2-(morpholin-4-yl)ethoxy]phenyl}amino)pyrimidin-4-yl]benzonitrile]	5 to 50	10 to 100	–	–
C[C@H](O)C(=O)N1CCC(Oc2ccc(-c3ccnc(Nc4ccc(C(=O)NCCN(C)C)cc4)n3)cc2C#N)CC1 [compound 367, 4-({4-[3-cyano-4-({1-[(2S)-2-hydroxypropanoyl]piperidin-4-yl}oxy)phenyl]pyrimidin-2-yl}amino)-N-[2-(dimethylamino)ethyl]benzamide]	< 5	< 10	–	–
COc1ccc(Nc2nccc(-c3cc(Cl)cc(C#N)c3)n2)cc1OC [Example 248, 3-Chloro-5-{2-[(3,4-dimethoxyphenyl)amino]pyrimidin-4-yl}benzonitrile]	5 to 50	10 to 100	–	–
CC(C)C(=O)Nc1ccc(-c2ccnc(Nc3ccc(CC(=O)N4CCOCC4)cc3)n2)cc1C#N [compound 419, N-{2-cyano-4-[2-({4-[2-(morpholin-4-yl)-2-oxoethyl]phenyl}amino)pyrimidin-4-yl]phenyl}-2-methylpropanamide]	5 to 50	10 to 100	–	–
COc1ccc(Nc2nccc(-c3ccc(OC)c(C#N)c3)n2)cc1Cl [compound 327, 5-{2-[(3-Chloro-4-methoxyphenyl)amino]pyrimidin-4-yl}-2-methoxybenzonitrile]	5 to 50	10 to 100	–	–
N#Cc1cc(-c2ccnc(Nc3ccc(N4CCOCC4)cc3)n2)ccc1OC1CCN(C(=O)CCO)CC1 [Example 215, 2-{[1-(3-Hydroxypropanoyl)piperidin-4-yl]oxy}-5-(2-{[4-(morpholin-4-yl)phenyl]amino}pyrimidin-4-yl)benzonitrile]	5 to 50	< 10	–	–
N#Cc1cc(-c2ccnc(Nc3ccc(NC(=O)NCCO)cc3)n2)ccc1OC1CCOCC1 [Example 11, 1-[4-({4-[3-cyano-4-(tetrahydro-2H-pyran-4-yloxy)phenyl]pyrimidin-2-yl}amino)phenyl]-3-(2-hydroxyethyl)urea]	< 5	< 10	–	–
N#Cc1cc(-c2ccnc(Nc3ccc(S(=O)(=O)N4CCOCC4)cc3)n2)ccc1OC1CCOCC1 [compound 363, 5-(2-{[4-(morpholin-4-ylsulfonyl)phenyl]amino}pyrimidin-4-yl)-2-(tetrahydro-2H-pyran-4-yloxy)benzonitrile]	5 to 50	< 10	–	–
COC(=O)c1ccc(Nc2nccc(-c3ccc(OC4CCOCC4)c(C#N)c3)n2)cc1OC [Example 235, methyl 4-({4-[3-cyano-4-(tetrahydro-2H-pyran-4-yloxy)phenyl]pyrimidin-2-yl}amino)-2-methoxybenzoate]	< 5	< 10	–	–
CN(C)c1ccc(Nc2nccc(-c3cccc(C#N)c3)n2)cc1 [Example 286, 3-(2-{[4-(Dimethylamino)phenyl]amino}pyrimidin-4-yl)benzonitrile]	50 to 500	100 to 500	–	–
N#Cc1cc(-c2ccnc(Nc3ccc(N4CCOCC4)cc3)n2)ccc1OCCCN [compound 447, 2-(3-Aminopropoxy)-5-(2-{[4-(morpholin-4-yl)phenyl]amino}pyrimidin-4-yl)benzonitrile]	5 to 50	10 to 100	–	–
COc1ccc(-c2ccnc(Nc3ccc(CN(C)C)cc3)n2)cc1C#N [Example 45, 5-[2-({4-[(Dimethylamino)methyl]phenyl}amino)pyrimidin-4-yl]-2-methoxybenzonitrile]	50 to 500	10 to 100	–	–
COc1ccc(Nc2nccc(-c3cccc(C#N)c3)n2)cc1Cl [compound 318, 3-{2-[(3-Chloro-4-methoxyphenyl)amino]pyrimidin-4-yl}benzonitrile]	5 to 50	10 to 100	–	–
COc1cc(NC(=O)N2CCCC(O)C2)cc(Nc2nccc(-c3ccc(OC)c(C#N)c3)n2)c1 (stereo not drawn) [compound 353, N-(3-{[4-(3-Cyano-4-methoxyphenyl)pyrimidin-2-yl]amino}-5-methoxyphenyl)-3-hydroxypiperidine-1-carboxamide]	5 to 50	10 to 100	–	–
CC(C)C(=O)Nc1ccc(-c2ccnc(Nc3ccc(CN4CCOCC4)cc3)n2)cc1C#N [compound 428, N-[2-cyano-4-(2-{[4-(morpholin-4-ylmethyl)phenyl]amino}pyrimidin-4-yl)phenyl]-2-methylpropanamide]	5 to 50	10 to 100	–	–
COc1cc(Nc2nccc(-c3cccc(C#N)c3)n2)cc(OC)c1 [compound 347, 3-{2-[(3,5-Dimethoxyphenyl)amino]pyrimidin-4-yl}benzonitrile]	50 to 500	100 to 500	–	–
COc1ccc(-c2ccnc(Nc3ccc(N4CCNC(=O)C4)cc3)n2)cc1C#N [Example 71, 2-Methoxy-5-(2-{[4-(3-oxopiperazin-1-yl)phenyl]amino}pyrimidin-4-yl)benzonitrile]	5 to 50	10 to 100	–	–
COc1cc(C#N)cc(-c2ccnc(Nc3cccc(NC(C)=O)c3)n2)c1 [Example 214, N-(3-{[4-(3-Cyano-5-methoxyphenyl)pyrimidin-2-yl]amino}phenyl) acetamide]	5 to 50	10 to 100	–	–
